Counter-ions that a name gives are not always drawn.
Assays:
[1] = Assessment of stability of baclofen hydrochloride solution (Example 3); type: physicochemical; conditions: water, NMP, propylene glycol, glycerin; 50° C.
Description: Baclofen (10.0 g) was dissolved in 10% hydrochloric acid (20 g), the solvent in the prepared solution was frozen, and then the frozen product was dried in a lyophilizer overnight to give baclofen hydrochloride.
The resulting baclofen hydrochloride was dissolved in water, NMP (N-methylpyrrolidone), propylene glycol or glycerin to prepare each solution comprising baclofen hydrochloride in an amount of 0.25% by weight. Each of the prepared solutions was stored at 50° C. and the contexts of baclofen and ring products thereof in the solutions were measured after 1 and 2 weeks of the storage to assess the stability of baclofen.

[2] = Solubility of baclofen in solvents; type: physicochemical
From the text: The concentration of baclofen was insufficient to be used as an external preparation.

stability when dissolved in the solvents [1]	solubility in 10% hydrochloric acid ([2]; 10% hydrochloric acid)	solubility in lactic acid ([2]; lactic acid)	solubility in water ([2]; water)	Structure (SMILES)
stable	–	–	–	NCC(CC(=O)O)c1ccc(Cl)cc1 (stereo not shown) [Baclofen hydrochloride]
–	about 39%	about 33%	about 0.27%	NCC(CC(=O)O)c1ccc(Cl)cc1 (stereo not shown) [baclofen, 4-amino-3-(4-chloropehnyl)butanoic acid]

Reference: US20220016061A1, “Preparation Stabilized by Means of Nonaqueous Solvent” (MEDRx Co., Ltd., priority 2018, published 2022)
